These results are taken from patent US20260174747A1, “COMPUTER IMPLEMENTED METHODS OF GENERATING DOSE RECOMMENDATIONS” (National University of Singapore, priority 2022, published 2026).

A short description of the data set: Retrospective analysis of tacrolimus trough levels (TTL) under SOC dosing, 30 days after pediatric liver transplantation. Format: in vivo, pediatric liver transplant patients. The protocol: CURATE.AI requires two components to be supplied into the platform as inputs: the administered tacrolimus dose in mg (dose) and the corresponding TTL in ng/ml (response) to generate a personalized profile for each patient. […] The response input was the corresponding TTL response measured the next day, right before the morning dose. Days with two measurements of TTL (taken in the morning and evening) instead of one, which is the standard frequency, were excluded. TTL measurements <2 ng/ml were assessed to be inaccurate as the measurement equipment was unable to provide resolution for TTL<2 ng/ml, and were thus excluded. All measurements in the records were only taken once each. Doses recorded from day 30 post-transplant onwards were not included as part of this study since it is during the initial post-transplant period that fluctuations in TTL are common; thereby requiring frequent adjustments in drug dosing. […] Doses recorded from the day of discharge onwards were assessed to be unreliable, as confirmation of the doses administered was not possible, and thus excluded. This study used dose-response pairs over a set of consecutive days for each patient for the analysis by CURATE.AI. Dose ranges were categorized as low (<2 mg), medium (2 mg to <4 mg), and high (≥4 mg).
The normality of the data distribution was tested with the Shapiro-Wilk test. Continuous variables were represented as mean (standard deviation (SD)) or median (interquartile range (IQR)), depending on the normality of the data type. Two-sided Wilcoxon signed-rank test was used to compare the medians of two non-parametric groups. Two-sided paired t-test was used to compare the means of two related parametric groups. The statistical significance was defined as p<0.05. All analyses were performed in Python (version 3.9.13).
The grey region represents the therapeutic range of between and inclusive of 7 and 10 ng/ml. Blue and orange markers represent TTL outside and within the therapeutic range, respectively. […]

For the compound `C=CC[C@@H]1/C=C(\C)C[C@H](C)C[C@H](OC)[C@H]2O[C@@](O)(C(=O)C(=O)N3CCCC[C@H]3C(=O)O[C@H](/C(C)=C/[C@@H]3CC[C@@H](O)[C@H](OC)C3)[C@H](C)[C@@H](O)CC1=O)[C@H](C)C[C@@H]2OC` [tacrolimus], the “days within the therapeutic range (TTL 7 to 10 ng/ml), mean” value (16 patients, mean (SD)) is given as 42.18 % of days. The “mean TTL (tacrolimus trough level)” value (all 16 patients, first 30 days post-transplant, mean (SD)) was 8.79 ng/mL. Moreover, the “time to first achieve the therapeutic range (TTL 7 to 10 ng/ml), median” value (median (IQR)) is 5.00 days.
